What was measured:
[1] = tested on: patients diagnosed with primary osteoporosis; assay: Working Example 1: lumbar spine bone mineral density by DXA, teriparatide acetate 5 or 100 units once a week plus calcium agent; format: in vivo, human; conditions: mean ± SD
Method: Both the 5 and 100 unit groups were administered two tablets of a calcium agent (containing 500 mg of precipitated calcium carbonate [200 mg as calcium] per tablet) once a day.
The osteoporosis patients were classified as condition shown in Table 1 based on the bone fracture risk factors present, as in Non-patent Reference 13, and compared. High-risk patients were defined as having all three factors involving age, prevalent vertebral fractures, and bone density or bone atrophy; low-risk patients were defined as other than the above.

[2] = tested on: high-risk patients diagnosed with primary osteoporosis; assay: Working Example 2: bone density of lumbar spine and femur by DXA; format: in vivo, human; conditions: 200 units weekly; for Change in bone density (%), lumbar spine / Change in bone density (%), neck of femur / Change in bone density (%), proximal femur: patients taking glucocorticoid
Method: For the bone density of the femur, only the left side of the proximal part of the femur, rotated 20°, was measured at the start and every 24 weeks thereafter using dual-energy x-ray absorptiometry (DXA).

[3] = in vivo
Method: The serum calcium was measured at the start, after 12 weeks, after 24 weeks, after 48 weeks, and after 72 weeks. Serum calcium standard value: 8.4 to 10.4 mg/dL. The standard concomitant drug (610 mg of calcium, 400 IU of vitamin D3, and 30 mg of magnesium) was taken once a day after dinner from the time of consent to the end of the trial.

[4] = tested on: osteoporosis patients having normal renal function, mild or moderate renal dysfunction; conditions: in vivo
Source text: The incidence of adverse events was studied after administering the test drug to the a group of osteoporosis patients having normal renal function, a group of osteoporosis patients having mild renal dysfunction, and a group of osteoporosis patients having moderate renal dysfunction.

[5] = tested on: osteoporosis patients having normal renal function, mild or moderate renal dysfunction; conditions: in vivo; remark: listed apart in the source
[6] = history of calcium L-aspartate, 24 W
[7] = history of calcium L-aspartate, 48 W
[8] = history of calcium L-aspartate, 72 W
[9] = history of calcium lactate, 24 W
[10] = history of calcium lactate, 48 W
[11] = history of calcium lactate, 72 W
[12] = history of raloxifene hydrochloride, 24 W
[13] = history of raloxifene hydrochloride, 48 W
[14] = history of raloxifene hydrochloride, 72 W
[15] = mild impairment (≧50-<80), after 24 W
[16] = mild impairment (≧50-<80), after 48 W
[17] = mild impairment (≧50-<80), final
[18] = moderate impairment (<50), after 24 W
[19] = moderate impairment (<50), after 48 W
[20] = moderate impairment (<50), after 72 W
[21] = moderate impairment (<50), final

teriparatide acetate
Lumbar spine bone mineral density (% change) ([1]; high-risk patients, 5 units once a week, after 26 W): −0.9 ± 4.4%
Lumbar spine bone mineral density (% change) ([1]; high-risk patients, 5 units once a week, after 52 W): −0.6 ± 4.1%
Lumbar spine bone mineral density (% change) ([1]; high-risk patients, 5 units once a week, after 78 W): 0.4 ± 4.1%
Lumbar spine bone mineral density (% change) ([1]; high-risk patients, 5 units once a week, after 104 W): 0.4 ± 4.0%
Lumbar spine bone mineral density (% change) ([1]; high-risk patients, 5 units once a week, final check): −0.1 ± 4.8%
Lumbar spine bone mineral density (% change) ([1]; high-risk patients, 100 units once a week, after 26 W): 3.3 ± 4.5 %
Lumbar spine bone mineral density (% change) ([1]; high-risk patients, 100 units once a week, after 52 W): 4.3 ± 4.5 %
Lumbar spine bone mineral density (% change) ([1]; high-risk patients, 100 units once a week, after 78 W): 4.0 ± 4.5 %
Lumbar spine bone mineral density (% change) ([1]; high-risk patients, 100 units once a week, after 104 W): 4.9 ± 4.2 %
Lumbar spine bone mineral density (% change) ([1]; high-risk patients, 100 units once a week, final check): 4.5 ± 4.6 %
Lumbar spine bone mineral density (% change) ([1]; low-risk patients, 5 units once a week, after 26 W): −0.6 ± 6.4%
Lumbar spine bone mineral density (% change) ([1]; low-risk patients, 5 units once a week, after 52 W): −0.7 ± 6.2%
Lumbar spine bone mineral density (% change) ([1]; low-risk patients, 5 units once a week, after 78 W): 1.9 ± 7.5%
Lumbar spine bone mineral density (% change) ([1]; low-risk patients, 5 units once a week, final check): −0.6 ± 5.7%
Percentage change in bone density (%), lumbar spine ([2]; history of Alfacalcidol, 24 W): 3.11%
Percentage change in bone density (%), neck of femur ([2]; history of Alfacalcidol, 24 W): 1.64%
Percentage change in bone density (%), proximal femur ([2]; history of Alfacalcidol, 24 W): 2.77%
Percentage change in bone density (%), lumbar spine ([2]; history of Alfacalcidol, 48 W): 5.47%
Percentage change in bone density (%), neck of femur ([2]; history of Alfacalcidol, 48 W): 0.85%
Percentage change in bone density (%), proximal femur ([2]; history of Alfacalcidol, 48 W): 2.31%
Percentage change in bone density (%), lumbar spine ([2]; history of Alfacalcidol, 72 W): 6.47%
Percentage change in bone density (%), neck of femur ([2]; history of Alfacalcidol, 72 W): 2.19%
Percentage change in bone density (%), proximal femur ([2]; history of Alfacalcidol, 72 W): 2.31%
Percentage change in bone density (%), lumbar spine ([2]; history of calcitriol, 24 W): 3.50%
Percentage change in bone density (%), neck of femur ([2]; history of calcitriol, 24 W): −0.60%
Percentage change in bone density (%), proximal femur ([2]; history of calcitriol, 24 W): −1.40%
Percentage change in bone density (%), lumbar spine ([2]; history of calcitriol, 48 W): 4.40%
Percentage change in bone density (%), neck of femur ([2]; history of calcitriol, 48 W): −4.03%
Percentage change in bone density (%), proximal femur ([2]; history of calcitriol, 48 W): −1.05%
Percentage change in bone density (%), lumbar spine ([2]; history of calcitriol, 72 W): 6.38%
Percentage change in bone density (%), neck of femur ([2]; history of calcitriol, 72 W): −3.53%
Percentage change in bone density (%), proximal femur ([2]; history of calcitriol, 72 W): −0.04%
Percentage change in bone density (%), lumbar spine [2, 6]: 3.78%
Percentage change in bone density (%), neck of femur [2, 6]: 1.44%
Percentage change in bone density (%), proximal femur [2, 6]: 1.76%
Percentage change in bone density (%), lumbar spine [2, 7]: 6.16%
Percentage change in bone density (%), neck of femur [2, 7]: 1.88%
Percentage change in bone density (%), proximal femur [2, 7]: 2.28%
Percentage change in bone density (%), lumbar spine [2, 8]: 5.85%
Percentage change in bone density (%), neck of femur [2, 8]: 4.17%
Percentage change in bone density (%), proximal femur [2, 8]: 3.69%
Percentage change in bone density (%), lumbar spine [2, 9]: 1.96%
Percentage change in bone density (%), neck of femur [2, 9]: 0.30%
Percentage change in bone density (%), proximal femur [2, 9]: 1.78%
Percentage change in bone density (%), lumbar spine [2, 10]: 3.45%
Percentage change in bone density (%), neck of femur [2, 10]: −4.35%
Percentage change in bone density (%), proximal femur [2, 10]: −1.68%
Percentage change in bone density (%), lumbar spine [2, 11]: 4.93%
Percentage change in bone density (%), neck of femur [2, 11]: −2.53%
Percentage change in bone density (%), proximal femur [2, 11]: −3.20%
Percentage change in bone density (%), lumbar spine ([2]; history of elcatonin, 24 W): 3.95%
Percentage change in bone density (%), neck of femur ([2]; history of elcatonin, 24 W): 1.62%
Percentage change in bone density (%), proximal femur ([2]; history of elcatonin, 24 W): 3.86%
Percentage change in bone density (%), lumbar spine ([2]; history of elcatonin, 48 W): 3.59%
Percentage change in bone density (%), neck of femur ([2]; history of elcatonin, 48 W): 0.72%
Percentage change in bone density (%), proximal femur ([2]; history of elcatonin, 48 W): 3.44%
Percentage change in bone density (%), lumbar spine ([2]; history of elcatonin, 72 W): 5.36%
Percentage change in bone density (%), neck of femur ([2]; history of elcatonin, 72 W): 3.15%
Percentage change in bone density (%), proximal femur ([2]; history of elcatonin, 72 W): 4.41%
Percentage change in bone density (%), lumbar spine ([2]; history of menatetrenone, 24 W): 2.70%
Percentage change in bone density (%), neck of femur ([2]; history of menatetrenone, 24 W): 0.72%
Percentage change in bone density (%), proximal femur ([2]; history of menatetrenone, 24 W): 0.60%
Percentage change in bone density (%), lumbar spine ([2]; history of menatetrenone, 48 W): 3.04%
Percentage change in bone density (%), neck of femur ([2]; history of menatetrenone, 48 W): −3.18%
Percentage change in bone density (%), proximal femur ([2]; history of menatetrenone, 48 W): −0.56%
Percentage change in bone density (%), lumbar spine ([2]; history of menatetrenone, 72 W): 4.32%
Percentage change in bone density (%), neck of femur ([2]; history of menatetrenone, 72 W): −0.78%
Percentage change in bone density (%), proximal femur ([2]; history of menatetrenone, 72 W): −1.40%
Percentage change in bone density (%), lumbar spine [2, 12]: 1.77%
Percentage change in bone density (%), neck of femur [2, 12]: 0.21%
Percentage change in bone density (%), proximal femur [2, 12]: 2.44%
Percentage change in bone density (%), lumbar spine [2, 13]: 4.96%
Percentage change in bone density (%), neck of femur [2, 13]: 1.03%
Percentage change in bone density (%), proximal femur [2, 13]: 2.26%
Percentage change in bone density (%), lumbar spine [2, 14]: 4.59%
Percentage change in bone density (%), neck of femur [2, 14]: −0.51%
Percentage change in bone density (%), proximal femur [2, 14]: 3.03%
Change in lumbar vertebral density (%), mean [2, 15]: 3.9%
Change in lumbar vertebral density (%), median [2, 15]: 3.7%
Change in lumbar vertebral density (%), mean [2, 16]: 6.0%
Change in lumbar vertebral density (%), median [2, 16]: 5.7%
Change in lumbar vertebral density (%), mean ([2]; mild impairment (≧50-<80), after 72 W): 6.3%
Change in lumbar vertebral density (%), mean [2, 17]: 5.8%
Change in lumbar vertebral density (%), median [2, 17]: 5.4%
Change in lumbar vertebral density (%), mean [2, 18]: 3.7%
Change in lumbar vertebral density (%), median [2, 18]: 3.5%
Change in lumbar vertebral density (%), mean [2, 19]: 4.9%
Change in lumbar vertebral density (%), median [2, 19]: 3.8%
Change in lumbar vertebral density (%), mean [2, 20]: 6.1%
Change in lumbar vertebral density (%), median [2, 20]: 6.3%
Change in lumbar vertebral density (%), mean [2, 21]: 5.6%
Change in lumbar vertebral density (%), median [2, 21]: 4.9%
Change in lumbar vertebral density (%), mean ([2]; normal (≧80), after 24 W): 4.3%
Change in lumbar vertebral density (%), median ([2]; normal (≧80), after 24 W): 5.1%
Change in lumbar vertebral density (%), mean ([2]; normal (≧80), after 48 W): 5.4%
Change in lumbar vertebral density (%), median ([2]; normal (≧80), after 48 W): 5.6%
Change in lumbar vertebral density (%), mean ([2]; normal (≧80), after 72 W): 8.1%
Change in lumbar vertebral density (%), median ([2]; normal (≧80), final): 5.6%
Change in bone density (%), lumbar spine ([2]; 24 W): 3.50%
Change in bone density (%), neck of femur ([2]; 24 W): 2.53%
Change in bone density (%), proximal femur ([2]; 24 W): 2.46%
Change in bone density (%), lumbar spine ([2]; 48 W): 5.97%
Change in bone density (%), neck of femur ([2]; 48 W): 2.79%
Change in bone density (%), proximal femur ([2]; 48 W): 3.39%
Change in bone density (%), lumbar spine ([2]; 72 W): 6.82%
Change in bone density (%), neck of femur ([2]; 72 W): 2.44%
Change in bone density (%), proximal femur ([2]; 72 W): 3.06%
Corrected serum calcium value after administration, maximum [3]: 11.6 mg/dL
Corrected serum calcium value, range of the average [3]: 9.3 to 9.6 mg/dL
Corrected serum calcium, Mean [3]: 9.5 mg/dL
Corrected serum calcium, Median [3]: 9.5 mg/dL
Manifestation of hypercalcemia or hypercalciuria [3]: No manifestation of hypercalcemia or hypercalciuria was found
Safety in terms of the serum calcium (corrected serum calcium vs control) [3]: equivalent safety in terms of the serum calcium in all groups
Adverse events: point estimate of the difference (PTH200 group vs P group) [4]: 2.0
Side effects Yes (%) [5]: 36.8%
Side effects, point estimate of the difference [5]: 29.1
Side effects: No (%) [5]: 55.1%
Side effects: No, No. of cases [5]: 27
Side effects: Yes (%) [5]: 44.9%
Side effects: Yes, No. of cases [5]: 22

Source: US20120252729A1, “PTH-CONTAINING THERAPEUTIC/PROPHYLACTIC AGENT FOR OSTEOPOROSIS, CHARACTERIZED IN THAT PTH IS ADMINISTERED ONCE A WEEK IN A UNIT DOSE OF 100 TO 200 UNITS” (ASAHI KASEI PHARMA CORPORATION, priority 2009, published 2012)
